Results as given in patent US4970204A, “3-substituted nitro-steroid derivatives as 5-α-reductase inhibitors” (SmithKline Beecham Corporation, priority 1989, dated 1990).
Where two headings read alike, the source gives them in different places.

Target: T1, human steroid 5-α-reductase (Homo sapiens, UniProt P31213)
T1 construct: Frozen human prostates were thawed and minced into small pieces; from tissue; host or cells: hyperplastic human prostate, washed 140,000×g particulate fraction
T1 sequence (P31213 1-254): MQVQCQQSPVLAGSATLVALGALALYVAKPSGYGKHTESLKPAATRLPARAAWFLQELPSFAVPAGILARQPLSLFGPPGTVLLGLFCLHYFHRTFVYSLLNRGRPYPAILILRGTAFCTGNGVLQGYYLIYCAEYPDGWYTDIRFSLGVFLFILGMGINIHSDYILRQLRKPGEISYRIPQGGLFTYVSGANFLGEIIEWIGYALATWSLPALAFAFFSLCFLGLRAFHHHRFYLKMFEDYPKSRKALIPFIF
Assay: inhibition of human steroid 5-α-reductase using tissue from hyperplastic human prostates
Type: biochemical
Protocol: The tissue was homogenized in 3 to 5 volumes of 20 mM potassium phosphate, pH 6.5, buffer containing 0.33 M sucrose, 1 mM dithiothreitol, and 50 μM NADPH with a Brinkmann Polytron (Sybron Corporation, Westbury, N.Y.).
The resulting pellet was suspended in 20 mM potassium phosphate buffer, pH 6.5, containing 20% glycerol, 1 mM dithiothreitol, and 50 μM NADPH. The suspended particulate solution was stored at -80° C.
After incubating the solution at 37° C. for 20 to 30 minutes the reaction was quenched by the addition of 4 ml ethyl acetate and 0.25 μmol each of testosterone, dihydrotestosterone, androstanediol, and androstanedione as carriers. The organic layer was removed to a second test tube and evaporated to dryness in vacuo. […] The radiochemical content in the bands of the substrate and the products was determined with a BIOSCAN Imaging Scanner (Bioscan, Inc., Washington, D.C.). The percent of recovered radiolabel converted to product was calculated, from which enzyme activity was determined. All incubations were conducted such that no more than 12% of the substrate (testosterone) was consumed.
Assuming that the steroidal inhibitor is a competitive inhibitor against testosterone, a value for the inhibition constant (Ki) can be calculated from equation 1: […]

## CC(C)N(C(=O)[C@H]1CC[C@H]2[C@@H]3CC[C@H]4CC([N+](=O)[O-])=CC[C@]4(C)[C@H]3CC[C@]12C)C(C)C [2-ene analogue, 17β-N,N-diisopropylcarboxamide-3-nitro-5-α-androst-2-ene]
  Ki: 250 nM

## CC(C)N(C(=O)[C@H]1CC[C@H]2[C@@H]3CC[C@H]4C=C([N+](=O)[O-])CC[C@]4(C)[C@H]3CC[C@]12C)C(C)C [17β-N,N-Diisopropylcarboxamide-3-nitro-5-α-androst-3-ene]
Human prostatic particulate enzyme, [14C]-testosterone substrate, pH 5.0, 37° C., 20 to 30 minutes, Dixon plot, assuming competitive inhibition against testosterone, read-out: inhibition constant (Ki)
  Ki: 50 nM
